Read-outs that look alike come from different tables or passages of the source.
Legend:
glioblastoma SNB-19 = assay: WST-1 cell proliferation assay, SNB-19; type: cell-based, human; conditions: SNB-19, WST-1, 72 h, read-out: Anticancer Activity IC50 SNB-19
Experimental: (§1) Encouraged by our previous promising results in the field of antiproliferative activity of dipyridothiazines as well as by the good anticancer activity of the 1,2,3-triazoles, we decided to combine the biological potentials of dipyridothiazines and triazole moieties, hoping to obtain compounds with better activity. The antiproliferative activity of all 20 new 10-substituted 1,2,3-triazole derivatives of dipyridothiazines was tested in vitro against cancer cell lines: glioblastoma SNB-19, colorectal carcinoma Caco-2, lung cancer A549, and breast cancer MDA-MB231 using the WST-1 assay. Normal human fibroblasts NHDF were used as a control.
(§2) All dipyridothiazines with 1,2,3-triazole substituents (1–4)b–f were evaluated for their anticancer activity using four cultured cell lines: SNB-19 (human glioblastoma, DSMZ—German Collection of Microorganisms and Cell Cultures, Braunschweig, Germany), Caco-2 (human colon adenocarcinoma, DSMZ—German Collection of Microorganisms and Cell Cultures, Braunschweig, Germany), A549 (human lung carcinoma, ATCC, Manassas, VA, USA) and MDA-MB231 (human breast adenocarcinoma, ATCC, Manassas, VA, USA), and NHDF (human dermal fibroblast cell line, ATCC, Manassas, VA, USA. The cultured cells were kept at 37 °C and 5% CO2. The cells were seeded (1 × 10^4 cells/well/100 µL DMEM supplemented with 10% FCS and streptomycin and penicillin) using 96-well plates (Corning). The cells were counted in a hemocytometer (Burker’s chamber) using a phase contrast Olympus IX50 microscope equipped with Sony SSC-DC58 AP camera and Olympus DP10 digital camera.
(§3) Antiproliferative effect of the obtained compounds on the cancer cells was determined using the cell proliferation reagent WST-1 assay (Roche Diagnostics, Mannheim, Germany). This assay is based on the viable cell’s ability to cleave the bright red-colored tetrazolium salt (2-(4-iodophenyl)-3-(4-nitrophenyl)-5-(2,4-disulfophenyl)-2H-tetrazolium, monosodium salt) to dark red soluble formazan by cellular enzymes. An increase in the amount of formazan dye formed correlates to the number of metabolically active cells in the culture. The formazan dye produced by metabolically active cells is quantified by a scanning ELISA reader by measuring the absorbance of the dye solution at appropriate wavelengths. The examined cells were exposed to the tested compounds for 72 h at various concentrations between 0.1 μg/mL and 100 μg/mL (prepared initially at concentration of 1 mg/mL in DMSO). The cells were incubated with WST-1 (10 μL) for 1 h and the absorbance of the samples against a background control was measured at 450 nm using a microplate reader with a reference wavelength at 600 nm. The results are expressed as means of at least two independent experiments performed in triplicate.

[1] = system: colorectal carcinoma Caco-2; assay: WST-1 cell proliferation assay, Caco-2; type: cell-based; conditions: Homo sapiens; Caco-2, WST-1, 72 h; read-out: Anticancer Activity IC50 Caco-2
Experimental: (§4) The antiproliferative activity of all 20 new 10-substituted 1,2,3-triazole derivatives of dipyridothiazines was tested in vitro against cancer cell lines: glioblastoma SNB-19, colorectal carcinoma Caco-2, lung cancer A549, and breast cancer MDA-MB231 using the WST-1 assay. Normal human fibroblasts NHDF were used as a control.
as §2, §3

breast cancer MDA-MB231 = assay: WST-1 cell proliferation assay, MDA-MB231; type: cell-based, human; conditions: MDA-MB231, WST-1, 72 h, read-out: Anticancer Activity IC50 MDA-MB231
Experimental: as §1, §2, §3

lung cancer A549 = assay: WST-1 cell proliferation assay, A549; type: cell-based, human; conditions: A549, WST-1, 72 h, read-out: Anticancer Activity IC50 A549
Experimental: as §1, §2, §3

[2] = system: normal human fibroblasts NHDF; assay: WST-1 cytotoxicity assay, normal fibroblasts NHDF; type: cell-based; conditions: normal human fibroblasts NHDF, WST-1, 72 h
Experimental: as §1, §2, §3

[3] = system: SNB-19, Caco-2, A549 and MDA-MB231 cancer cell lines; assay: WST-1 assay, summary over the cancer cell line panel; type: cell-based, human; conditions: for IC50: Homo sapiens
Experimental: as §4, §2, §3

[4] = span over SNB-19, Caco-2, A549, MDA-MB231, read-out: IC50 across all investigated cancer cell lines

Fc1ccc(Cn2cc(CN3c4ccncc4Sc4ccncc43)nn2)cc1 [3c, 10-[(1-(4-Fluorobenzyl)-1H-1,2,3-triazol-4-yl)methyl]-2,7-diazaphenothiazine]
IC50 (glioblastoma SNB-19; Homo sapiens): 57.9 µM
IC50 [1]: 29.9 µM
IC50 (breast cancer MDA-MB231; Homo sapiens, MDA-MB-231): 25.7 µM
IC50 (lung cancer A549; Homo sapiens): 27.2 µM
IC50 [2]: 70.6 µM

N#Cc1ccc(Cn2cc(CN3c4cccnc4Sc4cccnc43)nn2)cc1 [1e, 10-[(1-(4-Cyanobenzyl)-1H-1,2,3-triazol-4-yl)methyl]-1,6-diazaphenothiazine]
IC50 (glioblastoma SNB-19; Homo sapiens): 9.65 µM
IC50 [1]: 79.7 µM
IC50 (breast cancer MDA-MB231; Homo sapiens, MDA-MB-231): 25.8 µM
IC50 (lung cancer A549; Homo sapiens): 1.79 µM
IC50 [2]: > 100 µM

Fc1ccc(Cn2cc(CN3c4cccnc4Sc4cccnc43)nn2)cc1 [1c, 10-[(1-(4-Fluorobenzyl)-1H-1,2,3-triazol-4-yl)methyl]-1,6-diazaphenothiazine]
IC50 (glioblastoma SNB-19; Homo sapiens): 5.72 µM
IC50 [1]: 8.1 µM
IC50 (breast cancer MDA-MB231; Homo sapiens, MDA-MB-231): 7.82 µM
IC50 (lung cancer A549; Homo sapiens): 29.1 µM
IC50 ([3]; span over SNB-19 and MDA-MB231, read-out: IC50 in relation to SNB-19 and MDA-MB231 cell lines): 5.72 to 7.82 µM
IC50 [2]: > 100 µM

c1ccc(SCn2cc(CN3c4cnccc4Sc4cccnc43)nn2)cc1 [2f, 10-[(1-Phenylthiomethyl-1H-1,2,3-triazolo-4-ylo)methyl]-1,8-diazaphenothiazine]
IC50 (glioblastoma SNB-19; Homo sapiens): 56.3 µM
IC50 [1]: 32.5 µM
IC50 (breast cancer MDA-MB231; Homo sapiens, MDA-MB-231): 12 µM
IC50 (lung cancer A549; Homo sapiens): 46.8 µM
IC50 [2]: > 100 µM

N#Cc1ccc(Cn2cc(CN3c4ccncc4Sc4ncccc43)nn2)cc1 [4e, 10-[(1-(4-Cyanobenzyl)-1H-1,2,3-triazol-4-yl)methyl]-3,6-diazaphenothiazine]
IC50 (glioblastoma SNB-19; Homo sapiens): 53.6 µM
IC50 [1]: 74.3 µM
IC50 (breast cancer MDA-MB231; Homo sapiens, MDA-MB-231): 38.8 µM
IC50 (lung cancer A549; Homo sapiens): 42.7 µM
IC50 [2]: > 100 µM

c1ccc(SCn2cc(CN3c4ccncc4Sc4ccncc43)nn2)cc1 [3f, 10-[(1-Phenylthiomethyl-1H-1,2,3-triazolo-4-ylo)methyl]-2,7-diazaphenothiazine]
IC50 (glioblastoma SNB-19; Homo sapiens): 32.6 µM
IC50 [1]: 14.5 µM
IC50 (breast cancer MDA-MB231; Homo sapiens, MDA-MB-231): 0.64 µM
IC50 (lung cancer A549; Homo sapiens): 0.65 µM
selectivity among cancer cell lines (in words) ([3]; four cancer cell lines): acted selectively towards A549 and MDA-MB231 cell lines
IC50 [2]: 52.9 µM

c1ccc(Cn2cc(CN3c4cccnc4Sc4cccnc43)nn2)cc1 [1b, 10-[(1-Benzyl-1H-1,2,3-triazol-4-yl)-methyl]-1,6-diazaphenothiazine]
IC50 (glioblastoma SNB-19; Homo sapiens): 69.2 µM
IC50 [1]: 19.9 ± 2.71 µM
IC50 (breast cancer MDA-MB231; Homo sapiens, MDA-MB-231): 13.7 µM
IC50 (lung cancer A549; Homo sapiens): > 100 µM
IC50 [2]: > 100 µM

c1ccc(Cn2cc(CN3c4ccncc4Sc4ncccc43)nn2)cc1 [4b, 10-[(1-Benzyl-1H-1,2,3-triazol-4-yl)-methyl]-3,6-diazaphenothiazine]
IC50 (glioblastoma SNB-19; Homo sapiens): 20.8 µM
IC50 [1]: 57.9 µM
IC50 (breast cancer MDA-MB231; Homo sapiens, MDA-MB-231): 7.87 µM
IC50 (lung cancer A549; Homo sapiens): 60.6 µM
IC50 [2]: > 100 µM

Clc1ccc(Cn2cc(CN3c4ccncc4Sc4ncccc43)nn2)cc1 [4d, 10-[(1-(4-Chlorobenzyl)-1H-1,2,3-triazol-4-yl)methyl]-3,6-diazaphenothiazine]
IC50 (glioblastoma SNB-19; Homo sapiens): 14.9 µM
IC50 [1]: 42.1 µM
IC50 (breast cancer MDA-MB231; Homo sapiens, MDA-MB-231): 13.4 µM
IC50 (lung cancer A549; Homo sapiens): 54 µM
IC50 [2]: > 100 µM

N#Cc1ccc(Cn2cc(CN3c4ccncc4Sc4ccncc43)nn2)cc1 [3e, 10-[(1-(4-Cyanobenzyl)-1H-1,2,3-triazol-4-yl)methyl]-2,7-diazaphenothiazine]
IC50 (glioblastoma SNB-19; Homo sapiens): 26.8 µM
IC50 [1]: 10 µM
IC50 (breast cancer MDA-MB231; Homo sapiens, MDA-MB-231): 3.5 µM
IC50 (lung cancer A549; Homo sapiens): 30.1 µM
IC50 [2]: 49.5 µM

Fc1ccc(Cn2cc(CN3c4ccncc4Sc4ncccc43)nn2)cc1 [4c, 10-[(1-(4-Fluorobenzyl)-1H-1,2,3-triazol-4-yl)methyl]-3,6-diazaphenothiazine]
IC50 (glioblastoma SNB-19; Homo sapiens): 6.25 µM
IC50 [1]: 0.25 µM
IC50 (breast cancer MDA-MB231; Homo sapiens, MDA-MB-231): 1.97 µM
IC50 (lung cancer A549; Homo sapiens): 0.25 µM
IC50 [3, 4]: 0.25 to 6.25 µM
IC50 [2]: 2.85 µM

c1ccc(Cn2cc(CN3c4cnccc4Sc4cccnc43)nn2)cc1 [2b, 10-[(1-Benzyl-1H-1,2,3-triazol-4-yl)-methyl]-1,8-diazaphenothiazine]
IC50 (glioblastoma SNB-19; Homo sapiens): 41.9 µM
IC50 [1]: > 100 µM
IC50 (breast cancer MDA-MB231; Homo sapiens, MDA-MB-231): 56.3 µM
IC50 (lung cancer A549; Homo sapiens): 77.4 µM
IC50 [2]: > 100 µM

c1ccc(SCn2cc(CN3c4ccncc4Sc4ncccc43)nn2)cc1 [4f, 10-[(1-Phenylthiomethyl-1H-1,2,3-triazolo-4-ylo)methyl]-3,6-diazaphenothiazine]
IC50 (glioblastoma SNB-19; Homo sapiens): 44.8 µM
IC50 [1]: 67.5 µM
IC50 (breast cancer MDA-MB231; Homo sapiens, MDA-MB-231): 44.3 µM
IC50 (lung cancer A549; Homo sapiens): > 100 µM
IC50 [2]: > 100 µM

c1ccc(SCn2cc(CN3c4cccnc4Sc4cccnc43)nn2)cc1 [1f, 10-[(1-Phenylthiomethyl-1H-1,2,3-triazolo-4-ylo)methyl]-1,6-diazaphenothiazine]
IC50 (glioblastoma SNB-19; Homo sapiens): > 100 µM
IC50 [1]: > 100 µM
IC50 (breast cancer MDA-MB231; Homo sapiens, MDA-MB-231): 68.7 µM
IC50 (lung cancer A549; Homo sapiens): > 100 µM
IC50 [2]: > 100 µM

N.N.[Cl][Pt][Cl] [Cisplatin, reference compound]
IC50 (glioblastoma SNB-19): 3.73 µM
IC50 (breast cancer MDA-MB231): 3.13 µM
IC50 (lung cancer A549): 0.6 µM
IC50 [2]: 63.9 µM

N#Cc1ccc(Cn2cc(CN3c4cnccc4Sc4cccnc43)nn2)cc1 [2e, 10-[(1-(4-Cyanobenzyl)-1H-1,2,3-triazol-4-yl)methyl]-1,8-diazaphenothiazine]
IC50 (glioblastoma SNB-19; Homo sapiens): 10.6 µM
IC50 [1]: 34.4 µM
IC50 (breast cancer MDA-MB231; Homo sapiens, MDA-MB-231): 12 µM
IC50 (lung cancer A549; Homo sapiens): 63.8 µM
IC50 [2]: > 100 µM

Clc1ccc(Cn2cc(CN3c4cnccc4Sc4cccnc43)nn2)cc1 [2d, 10-[(1-(4-Chlorobenzyl)-1H-1,2,3-triazol-4-yl)methyl]-1,8-diazaphenothiazine]
IC50 (glioblastoma SNB-19; Homo sapiens): 59.9 µM
IC50 [1]: 11.4 µM
IC50 (breast cancer MDA-MB231; Homo sapiens, MDA-MB-231): 4.71 µM
IC50 (lung cancer A549; Homo sapiens): 1.82 µM
IC50 [2]: 43 µM

c1ccc(Cn2cc(CN3c4ccncc4Sc4ccncc43)nn2)cc1 [3b, 10-[(1-Benzyl-1H-1,2,3-triazol-4-yl)-methyl]-2,7-diazaphenothiazine]
IC50 (glioblastoma SNB-19; Homo sapiens): 2.04 µM
IC50 [1]: 0.26 µM
IC50 (breast cancer MDA-MB231; Homo sapiens, MDA-MB-231): 0.77 µM
IC50 (lung cancer A549; Homo sapiens): 0.26 µM
IC50 [3, 4]: 0.26 to 2.07 µM
IC50 [2]: 22.7 µM

Clc1ccc(Cn2cc(CN3c4ccncc4Sc4ccncc43)nn2)cc1 [3d, 10-[(1-(4-Chlorobenzyl)-1H-1,2,3-triazol-4-yl)methyl]-2,7-diazaphenothiazine]
IC50 (glioblastoma SNB-19; Homo sapiens): 31.3 µM
IC50 [1]: 33.1 µM
IC50 (breast cancer MDA-MB231; Homo sapiens, MDA-MB-231): 4.26 µM
IC50 (lung cancer A549; Homo sapiens): 17.9 µM
IC50 [2]: > 100 µM

Fc1ccc(Cn2cc(CN3c4cnccc4Sc4cccnc43)nn2)cc1 [2c, 10-[(1-(4-Fluorobenzyl)-1H-1,2,3-triazol-4-yl)methyl]-1,8-diazaphenothiazine]
IC50 (glioblastoma SNB-19; Homo sapiens): 55.2 µM
IC50 [1]: 43.6 µM
IC50 (breast cancer MDA-MB231; Homo sapiens, MDA-MB-231): 9.21 µM
IC50 (lung cancer A549; Homo sapiens): 60.2 µM
IC50 [2]: > 100 µM

Source: PMC6930555, “Design, Synthesis, and Structural Characterization of Novel Diazaphenothiazines with 1,2,3-Triazole Substituents as Promising Antiproliferative Agents” (Molecules, 2019)
